For experiment [1], the system named is lipid peroxide in rat brain homogenate. In words: Inhibition of production of lipid peroxide in rat brain homogenate. It is filed as biochemical, rat (Sprague-Dawley). On the procedure:
Procedure: Sprague-Dawley rats (male, 9-15 weeks old) anesthetized with pentobarbital (50 mg/kg, intraperitoneal administration) were venesected and the brain tissue was resected. The tissue was homogenized in phosphate buffer (pH 7.4), and used as a 5% homogenate (on weight basis). The brain homogenate was allowed to react at 37° C. for 1 hour, and the amount of lipid peroxide produced was determined with the thiobarbituric acid method according to the method of Okawa et al. (Analytical Biochem 95 551, 1979). The drug was added to the 5% homogenate before the reaction at 37° C. for 1 hour so that the final concentration might be 5×10^-7 or 10^-6 M. Inhibition of production of lipid peroxide was expressed as the rate of inhibition in % of the amount produced in the solvent(DMSO)-treated group.

The target in experiment [2] is T1, Thromboxane A2 (TXA2) synthetase (Equus caballus, UniProt A0A9L0T8T9).
T1 sequence (A0A9L0T8T9 2-534): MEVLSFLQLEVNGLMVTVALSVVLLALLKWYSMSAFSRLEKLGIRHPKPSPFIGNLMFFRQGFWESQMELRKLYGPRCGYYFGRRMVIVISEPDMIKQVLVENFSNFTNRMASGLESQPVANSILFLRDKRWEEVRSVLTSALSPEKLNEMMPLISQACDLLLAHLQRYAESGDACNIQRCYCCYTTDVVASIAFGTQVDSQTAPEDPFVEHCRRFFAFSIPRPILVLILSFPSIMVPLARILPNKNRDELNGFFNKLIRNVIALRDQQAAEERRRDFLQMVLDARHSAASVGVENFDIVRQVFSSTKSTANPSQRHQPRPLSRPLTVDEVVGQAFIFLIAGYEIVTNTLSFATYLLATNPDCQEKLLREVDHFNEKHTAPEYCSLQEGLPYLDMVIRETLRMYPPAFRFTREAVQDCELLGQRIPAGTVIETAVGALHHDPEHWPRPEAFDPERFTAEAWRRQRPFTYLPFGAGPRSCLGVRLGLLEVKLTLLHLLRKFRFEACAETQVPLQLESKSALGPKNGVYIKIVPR
In words: Inhibition of Thromboxane A2 (TXA2) synthetase (horse platelet microsome). The format is biochemical. The conditions noted are these: read-out: Inhibition of Thromboxane A2 (TXA2) synthetase; for inhibition at 1 µM: 10^-6 M; for inhibition at 0.1 µM: 10^-7 M. The procedure: Inhibition of Thromboxane A2 (TXA2) synthetase
(§1) As a preparation of TXA2 synthetase, horse platelet microsome treated with indomethacin (indomethacin-treated horse platelet microsome: IPM) according to the method of Needleman et al. (Science 193 163, 1979) was used. To 60 μl of the solution of IPM in 50 mM Tris buffer(pH 7.5) (containing 140 μg on the protein basis), 60μof a solution containing a drug at a variable concentration was added and kept still at room temperature for 5 minutes. One hundred μl of this mixture was taken, to which 20 μl of a buffer containing 30 ng cf prostaglandin H2 (PGH2) with ice-cooling and kept still at 0° C. for 5 minutes to produce thromboxane A2 (TXA2). The reaction was stopped by addition of 500 μl of Tris buffer, and 50 μl of the resultant solution was subjected to radioimmunoassay of thromboxane B2 (TXB2), a stable metabolite of TXA2 [Shibouta et al. Biochem. Pharmacol. 28 3601, 1979]. The rate of inhibition (%) of TXA2 synthetase was determined from the difference in TXB2 productivity between the untreated group and the treated group.
as §1, with “60 μl of” for “60μof”, “of” for “cf”

With `CC1=C(C)C(=O)C(C(C)c2cccnc2)=C(C)C1=O` (centres unmarked) [Compound No. 1, 3,5,6-trimethyl-2-[1-(3-pyridyl)ethyl]-1,4-benzoquinone], in experiment [1] (5 × 10^-7 M), the “Inhibition of production of lipid peroxide in rat brain homogenate” value (from here on “Inhibition … in rat brain homogenate”) came out at 6%. In experiment [1] (10^-6 M), the “Inhibition … in rat brain homogenate” value stood at 90%. Further, in experiment [2], the inhibition (commonly how much of the control response was suppressed) at 1 µM came to 76% and the inhibition at 0.1 µM came to 37%.

For the compound `CC1=C(C)C(=O)C(C(CCCCCC(=O)O)c2cccnc2)=C(C)C1=O` (centres unmarked) [Compound No. 13, 7-(3-pyridyl)-7-(3,5,6-trimethyl-1,4-benzoquinon-2-yl)heptanoic acid], the “Inhibition … in rat brain homogenate” value in experiment [1] (5 × 10^-7 M) was 20%. In experiment [1] (10^-6 M), the “Inhibition … in rat brain homogenate” value was found to be 84%. Further, in experiment [2], the inhibition at 1 µM was 87% and the inhibition at 0.1 µM was found to be 48%.

Values taken from patent US4985447A, “Certain benzoquinones, naphthoquinones and derivatives thereof which exhibit thromboxane A2 synthetase inhibition or receptor antagonism and the like” (Takeda Chemical Industries, Ltd., priority 1986, dated 1991).
